Laboratory results reported in ChEMBL document CHEMBL3228021, “Studies on analgesic agents. 1.1a Preparation of 1,2-diphenyl-2-(4-substituted 1-piperazinyl)ethanol derivatives and structure-activity relationships” (J Med Chem, 1979).

How the values were obtained:
Mus musculus [1] = test: Analgesic activity in sc dosed ddN mouse assessed as inhibition of light radiation-induced thermal pain by D'Amour-Smith method; format: functional
Mus musculus [2] = test: Analgesic activity in po dosed ddN mouse assessed as inhibition of phenylquinone-induced writhing; format: functional
Mus musculus [3] = test: Toxicity in sc dosed ddN mouse light radiation-induced thermal pain model; format: organism-based; conditions: in vivo
Mus musculus [4] = species on record: Mus musculus; test: Toxicity in mouse assessed as induction of physical dependence liability by jumping test; format: organism-based; conditions: in vivo
Rattus norvegicus [5] = species on record: Rattus norvegicus; test: Toxicity in morphine-dependent rat assessed as induction of physical dependence liability by substitution test; format: organism-based; conditions: in vivo
[6] = Acute lethal toxicity in sc dosed rat measured after 1 week; format: organism-based; conditions: in vivo
Rattus norvegicus [7] = test: Analgesic activity in po dosed Wistar rat assessed as inhibition of tail pressing-induced mechanical pain by Haffner method; format: functional
Mus musculus [8] = test: Analgesic activity in po dosed ddN mouse assessed as inhibition of light radiation-induced thermal pain by D'Amour-Smith method; format: functional
[9] = Acute lethal toxicity in sc dosed mouse measured after 1 week; format: organism-based; conditions: in vivo
[10] = Acute lethal toxicity in po dosed rat measured after 1 week; format: organism-based; conditions: in vivo
[11] = Acute lethal toxicity in po dosed mouse measured after 1 week; format: organism-based; conditions: in vivo
Rhesus monkey = test: Toxicity in morphine-dependent monkey assessed as induction of physical dependence liability by single dose suppression test; format: organism-based, Macaca mulatta; conditions: in vivo
[12] = Toxicity in po dosed Wistar rat tail pressing-induced mechanical pain model; format: organism-based; conditions: in vivo
[13] = Mus musculus, ddN, sc, read-out: ED50

Compound	ED50 (Mus musculus [1]; [13]) [mg/kg]	ED50 (Mus musculus [2]) [mg/kg]	other results
COc1ccc(CN2CCN([C@H](c3ccccc3)[C@H](O)c3ccccc3)CC2)cc1	40.1	–	–
COc1ccc(CN2CCN([C@@H](c3ccccc3)[C@@H](O)c3ccccc3)CC2)cc1	13.5	–	–
COc1ccc(CN2CCN([C@H](c3ccccc3Cl)[C@H](O)c3ccccc3)CC2)cc1.Cl	58.4	–	–
COc1ccc(CN2CCN([C@@H](c3ccccc3Cl)[C@@H](O)c3ccccc3)CC2)cc1.Cl	> 160	–	–
COc1ccc(CN2CCN(C(c3ccccc3)C(O)c3ccccc3)CC2)cc1 (racemic)	> 160	31.1	ED50 (Mus musculus [3]): 15.2 mg/kg
Cc1ccc(CN2CCN(C(c3ccccc3)C(O)c3ccccc3)CC2)cc1.Cl.O (racemic)	> 160	43.7	–
Cl.O=[N+]([O-])c1ccc(CN2CCN(C(c3ccccc3)C(O)c3ccccc3)CC2)cc1 (racemic)	> 160	40	–
CCOc1ccc(CN2CCN(C(c3ccccc3Cl)C(O)c3ccccc3)CC2)cc1.Cl (racemic)	> 160	–	–
Cl.OC(c1ccccc1)C(c1ccccc1Cl)N1CCN(Cc2ccc(OCc3ccccc3)cc2)CC1 (racemic)	> 160	–	–
COc1ccccc1CN1CCN(C(c2ccccc2)C(O)c2ccccc2)CC1.Cl.O (racemic)	> 160	–	–
COc1ccccc1CN1CCN(C(c2ccccc2Cl)C(O)c2ccccc2)CC1.Cl.O (racemic)	> 160	–	–
COc1cccc(CN2CCN(C(c3ccccc3Cl)C(O)c3ccccc3)CC2)c1.Cl (racemic)	> 160	–	–
COc1cccc(CN2CCN(C(c3ccccc3C)C(O)c3ccccc3)CC2)c1.Cl.O (racemic)	> 160	–	–
COc1ccc(CN2CCN(C(c3ccccc3Cl)C(O)c3ccccc3)CC2)cc1OC.Cl (racemic)	> 160	–	–
Cl.OC(c1ccccc1)C(c1ccccc1Cl)N1CCN(Cc2ccc3c(c2)OCO3)CC1 (racemic)	> 160	–	–
COc1cc(CN2CCN(C(c3ccccc3Cl)C(O)c3ccccc3)CC2)cc(OC)c1OC.Cl.O (racemic)	> 160	–	–
COc1ccc(CN2CCN(C(c3ccccc3)C(O)c3ccccc3OC)CC2)cc1.Cl (racemic)	> 160	–	–
COc1ccc(CN2CCN(C(c3ccccc3)C(O)c3ccc(OC)cc3)CC2)cc1.Cl.O (racemic)	> 160	–	–
COc1ccc(CN2CCN(C(c3ccccc3)C(O)c3ccccc3Cl)CC2)cc1.Cl (racemic)	> 160	–	–
COc1ccc(CN2CCN(C(c3ccccc3)C(O)c3cccc(Cl)c3)CC2)cc1.Cl.O (racemic)	> 160	–	–
COc1ccc(CN2CCN(C(c3ccccc3)C(O)c3ccc(Cl)cc3)CC2)cc1.Cl (racemic)	> 160	–	–
COc1ccc(CN2CCN(C(c3ccccc3)C(O)c3ccccc3C)CC2)cc1.Cl (racemic)	120	100	–
COc1ccc(CN2CCN(C(c3ccccc3)C(O)c3cccc(C)c3)CC2)cc1.Cl (racemic)	26.4	18.5	–
COc1ccc(CN2CCN(C(c3ccccc3)C(O)c3ccc(C)cc3)CC2)cc1.Cl (racemic)	31.7	85.9	–
COc1ccc(CN2CCN(C(c3ccccc3)C(O)c3ccc(O)cc3)CC2)cc1.Cl (racemic)	> 160	–	–
COc1ccc(CN2CCN(C(c3ccccc3OC)C(O)c3ccccc3)CC2)cc1.Cl (racemic)	–	–	Activity (Mus musculus [4]): Non-toxic; Activity (Rattus norvegicus [5]): Non-toxic

Compound	ED50 (Mus musculus [1]; [13]) [mg/kg]	ED50 (Mus musculus [2]) [mg/kg]	other results
COc1ccc(CN2CCN(C(c3cccc(OC)c3)C(O)c3ccccc3)CC2)cc1.Cl (racemic)	> 160	–	–
COc1ccc(CN2CCN(C(c3ccc(OC)cc3)C(O)c3ccccc3)CC2)cc1.Cl (racemic)	37.4	24.1	–
COc1ccc(CN2CCN(C(c3cccc(Cl)c3)C(O)c3ccccc3)CC2)cc1.Cl (racemic)	48.1	27.2	–
COc1ccc(CN2CCN(C(c3ccc(Cl)cc3)C(O)c3ccccc3)CC2)cc1.Cl (racemic)	39.7	16.4	–
COc1ccc(CN2CCN(C(c3cccc(C)c3)C(O)c3ccccc3)CC2)cc1.Cl (racemic)	28	27.7	–
COc1ccc(CN2CCN(C(c3ccc(C)cc3)C(O)c3ccccc3)CC2)cc1.Cl (racemic)	14.1	16.8	–
COc1ccc(CN2CCN(C(c3ccc([N+](=O)[O-])cc3)C(O)c3ccccc3)CC2)cc1.Cl (racemic)	–	10.2	ED50 (Mus musculus [1]): 8.11 mg/kg
COc1ccc(CN2CCN(C(c3ccccc3Cl)C(O)c3ccc(C)cc3)CC2)cc1.Cl (racemic)	> 160	–	–
COc1ccc(CN2CCN(C(c3ccc(Cl)cc3)C(O)c3ccc(C)cc3)CC2)cc1.Cl (racemic)	> 160	–	–
COc1ccc(CN2CCN(C(c3ccccc3OC)C(O)c3ccc(C)cc3)CC2)cc1.Cl (racemic)	> 160	–	–
COc1ccc(CN2CCN(C(c3ccccc3)C(OC(C)=O)c3ccccc3)CC2)cc1.Cl (racemic)	80	46.3	–
CCC(=O)OC(c1ccccc1)C(c1ccccc1)N1CCN(Cc2ccc(OC)cc2)CC1.Cl (racemic)	73.1	44.3	–
CCC(=O)OC(c1ccccc1)C(c1ccccc1Cl)N1CCN(Cc2ccc(OC)cc2)CC1.Cl (racemic)	> 160	90	–
OC(c1ccccc1)C(c1ccccc1)N1CCN(c2ccccc2Cl)CC1 (racemic)	> 160	–	–
COc1ccccc1N1CCN(C(c2ccccc2)C(O)c2ccccc2)CC1 (racemic)	> 160	–	–
OC(c1ccccc1)C(c1ccccc1)N1CCN(c2ccccn2)CC1 (racemic)	> 160	–	–
Cl.OC(c1ccccc1)C(c1ccccc1)N1CCN(C2CCCCC2)CC1 (racemic)	–	–	ED50 (Mus musculus [3]): > 80 mg/kg
Cl.OC(c1ccccc1)C(c1ccccc1)N1CCN(Cc2ccccc2)CC1 (racemic)	> 160	20.6	–
OC(c1ccccc1)C(c1ccccc1)N1CCN(CCc2ccccc2)CC1 (racemic)	> 160	–	–
COc1ccc(CN2CCN(C(c3ccccc3Cl)C(O)c3ccccc3)CC2)cc1.Cl (racemic; 38)	–	20.9	LD50 at 168 h [6]: 584 mg/kg; ED50 (Rattus norvegicus [7]): 228 mg/kg; ED50 (Mus musculus [8]): 165 mg/kg; LD50 at 168 h [9]: 431 mg/kg; LD50 at 168 h [10]: > 3200 mg/kg; LD50 at 168 h [11]: 509 mg/kg; ED50 (Mus musculus [1]): 79 mg/kg; Activity (Mus musculus [4]): Non-toxic; Activity (Rattus norvegicus [5]): Non-toxic; Activity (Rhesus monkey): Non-toxic
COc1ccc(CN2CCN(C(c3ccccc3C)C(O)c3ccccc3)CC2)cc1.Cl (racemic; 41)	–	–	ED50 (Mus musculus [1]): 65.2 mg/kg; Activity (Mus musculus [4]): Non-toxic; Activity (Rattus norvegicus [5]): Non-toxic
COc1ccc(CN2CCN(C(c3ccccc3Cl)C(O)c3ccccc3)CC2)cc1.Cl (racemic; 53)	–	–	ED50 (Mus musculus [1]): >160 mg/kg
COc1ccc(CN2CCN(C(c3ccccc3C)C(O)c3ccccc3)CC2)cc1.Cl (racemic; 54)	–	–	ED50 (Mus musculus [1]): >160 mg/kg
COc1ccc(CN2CCN(C(c3ccc([N+](=O)[O-])cc3)C(O)c3ccccc3)CC2)cc1.Cl (stereo in doubt; 55)	–	–	ED50 (Mus musculus [1]): >160 mg/kg
Cc1c(N(C)C)c(=O)n(-c2ccccc2)n1C [AMINOPYRINE]	–	–	ED50 (Mus musculus [3]): > 640 mg/kg; LD50 at 168 h [6]: 511 mg/kg; LD50 at 168 h [9]: 385 mg/kg; LD50 at 168 h [10]: > 2000 mg/kg; LD50 at 168 h [11]: 523 mg/kg; LD50 [12]: > 2560 mg/kg
COc1ccc2c3c1O[C@H]1[C@@H](O)C=C[C@H]4[C@@H](C2)N(C)CC[C@@]341.COc1ccc2c3c1O[C@H]1[C@@H](O)C=C[C@H]4[C@@H](C2)N(C)CC[C@@]341.O.O=P(O)(O)O.O=P(O)(O)O [CODEINE PHOSPHATE]	28.1	8.21	LD50 at 168 h [6]: 365 mg/kg; ED50 (Rattus norvegicus [7]): 196 mg/kg; ED50 (Mus musculus [8]): 98.4 mg/kg; LD50 at 168 h [9]: 271 mg/kg; LD50 at 168 h [10]: 1180 mg/kg; LD50 at 168 h [11]: 574 mg/kg
